# Entries after “also recorded” stand apart in the source; their conditions may differ. Like-named read-outs stand apart in the source and are kept apart here.
# What was measured:
# esterase = test: Esterase mediated conversion of treprostinil compounds to treprostinil; assay type: in vitro ADME; conditions: esterase at 37° C., up to 1 hr
# Experimental: A set of studies was conducted to determine the conversion kinetics to treprostinil of linear treprostinil compounds versus various branched treprostinil compounds. 0.4 mM of linear C8-TR or branched treprostinil compounds 2-dimethyl-1-propanyl-TR, 3,3-dimethyl-1-butanyl-TR, 2-ethyl-1-butanyl-TR, 5-nonanyl-TR, or 3-pentanyl-TR (see below for structures) were incubated with 0.2 U esterase at 37° C. for 1 hour, and the conversion (% of total) was calculated at 0.25, 0.5, 0.75, or 1 hour incubation time. • C8-TR (i.e., the compound of Formula (A) wherein R2=
# The conversion is relative to the C8-TR compound and conversion was measured at 1 hr. post esterase incubation. • C8-TR (i.e., the compound of Formula (A) wherein R2=
# Conversion was measured at 1 hr. post esterase incubation. • 4C7-TR (i.e., the compound of Formula (A) wherein R2=
# EP2 prostanoid receptor = target: T1, EP2 prostanoid receptor (Homo sapiens, UniProt P43116); test: GloSensor cAMP assay in CHO-K1 cells co-transfected with the EP2 receptor; assay type: cell-based
# T1 construct: host or cells: CHO-K1
# T1 sequence (P43116 whole entry): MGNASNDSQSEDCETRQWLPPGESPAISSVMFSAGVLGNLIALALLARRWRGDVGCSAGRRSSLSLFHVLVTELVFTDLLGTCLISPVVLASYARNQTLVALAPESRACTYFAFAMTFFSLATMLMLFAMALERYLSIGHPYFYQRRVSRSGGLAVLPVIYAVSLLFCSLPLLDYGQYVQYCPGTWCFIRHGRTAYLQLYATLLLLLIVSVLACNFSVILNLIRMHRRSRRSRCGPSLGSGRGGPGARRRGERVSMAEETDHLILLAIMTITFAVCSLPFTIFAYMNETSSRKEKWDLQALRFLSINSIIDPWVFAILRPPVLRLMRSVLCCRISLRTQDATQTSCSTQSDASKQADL
# Source text: cAMP is a second messenger involved in signal transduction of G-protein coupled receptors (GPCRs) acting through Gα-s and Gα-i proteins. Because the treprostinil receptor is a GPCR, the assay provides an indication of whether the respective prostacyclin compound (or metabolite thereof) binds its receptor and activates the GPCR cell signaling cascade. The GloSensorTM assay harnesses a genetically modified form of firefly luciferase into which a cAMP-binding protein moiety has been inserted. Upon binding of cAMP, a conformational change is induced leading to increased light output. The EP2 prostanoid receptor was cotransfected with the GioSensorm plasmid (Promega) into CHO-K cells as follows. CHO-K cells were harvested when the monoloayer was at 50-90% confluence. First, cells were washed with 5 mL PBS. […] The media was aspirated, and the cell pellet was resuspended in 10 mL of growth media. Cell number was determined using a hemacytometer. […] For small scale transfections of up to 20 wells, the pGLoSensor-22F cAMP plasmid (Promega, Cat #: E2301) (2 apg): […] Cat #: […] P2271) ratio was diluted to a final concentration of 12.6 ng/μL (total plasmid) in Opti-MEM I reduced-serum medium (Life Technologies, Cat #: 1985062). Next, 6 μL of FuGENE HD transfection reagent (Promega, Cat #: E2311) was added to 160 μL of diluted plasmid and mixed carefully by gentle pipetting. The complex was incubated at room temperature for 0 to 10 minutes, and then 8 μL of the complex was added per well of a 96 well white assay plate (Costar, Cat #: 3917) and gently mixed without disturbing the cell monolayer. […] Following incubation, cells were treated and analyzed. For larger scale transfections, the aforementioned steps were scaled up accordingly, and cells were frozen following the last incubation. In order to prepare frozen transfected CHO-K cells, the media was aspirated from culture flasks and cells were rinsed with 5 mL PBS. […] Cell number was determined using a hemacytometer. The media was aspirated, and the cell pellet was resuspended in freezing media (Millipore, cat #: S-002-SF) at 2.5×10^4 cells/vial. Transfected cells were incubated overnight at -80° C. before transfer to liquid nitrogen for long term storage. […] SH30071.03)). […] In preparation for cAMP measurement, the cells were equilibrated with the GloSensor cAMP reagent prior to treatment. For equilibration, the medium was carefully removed from the individual well. Next, 100 μL of equilibration medium ([…] of Glosensor Reagent stock solution (Promega, Cat #: E291), 10% FBS (Hydone, Cat #: SH30071.03) and 88% CO2 independent medium (Life Technologies, Cat #: 18045088)) was added per well of the 96-well plate, and added to the side of each well. The plate was then incubated for 2 hours at room temperature. A first pre-read measurement was taken using a microplate reader (MicroLumat Plus). Plates were incubated for an additional 10 minutes at room temperature, followed by a second pre-read measurement. […] Following treatment, each plate was read every 5 minutes for the duration of the assay using a microplate reader (MicroLumat Plus). In order to determine the fold change in cAMP relative to the control, the transfection efficiency was first determined by dividing the second pre-read measurement by the average of the corresponding pre-read measurements. Next, the normalized relative light units (RLUs) of the samples were determined by dividing the plate read measurement by the transfection efficiency. The fold change in cAMP relative to the control was then determined by dividing the normalized RLU of the samples by the normalized RLU of the control. The cAMP assay was validated using free treprostinil. […] Luminescence was then measured at room temperature. […] Nebulizer Aeroneb Pro (Aerogen) was used to nebulize treprostinil derivative compositions. Desired volume of the formulation (usually 3 mL) was loaded to the mesh head of the nebulizer. […]
# physchem = conditions: organic solvent or mixture, thermodynamic from solid
# Experimental: Selected treprostinil derivatives were evaluated for the use in a metered dose inhaler (MDI).
# 5 mg of each treprostinil compound was added in a glass bottle. Specific amount of ethanol was added by weight. An MDI valve was crimped to each bottle, and HFA propellant added through the valve to the total volume of 5 mL. Compounds were allowed to dissolve for 24 hours at room temperature. The formulations were assessed visually for solubility. The goal was to estimate the minimum ethanol concentration required to solubilize each compound in propellant.
# Soluble samples presented as clear and colorless solutions. […] Non-soluble samples had white precipitate or crystals formed. Ethanol was added as a solubility aid.
# CHO-K1 cells = test: CHO-K1 cell proliferation assay (Presto Blue); conditions: Table 9, unformulated alkyl esters, (0.195 μM-25 μM), 48 hour incubation
# Experimental: CHO-K1 cells were harvested when the cell monolayer was 50-90% confluent (use passage 4-11). Media was aspirated out of the flask, and cells were rinsed with 2 mL of F12 media. Next, 1 mL of pre-warmed (37° C.) 0.25% trypsin-EDTA (Life Technologies, Cat#: 25300054) was added, and cells were dislodged from the flask by tapping it on the side. Complete growth media (F12 (Life Technologies, Cat #: 31765092)+10% FBS (Hyclone, Cat #: SH30071.03)+1× Pen-Strep (Life Technologies, cat #15140-122) was then added at a volume of 10 mL. Cells were centrifuged at 250×g for 5 minutes at room temperature, and the media was aspirated. The cell pellet was resuspended in 10 mL complete growth media. Cell number was determined using a hemacytometer. Cells were then seeded at 2000 cells per well of a 96-well plate in 100 μL of complete growth media. The plate was incubated overnight at 37° C. and 5% CO2 in a water-jacketed incubator.
# The next day, 80 μL of fresh complete media was added to each well, and CHO-K1 cells were challenged with treprostinil compound and composition treatments. The working solutions were prepared at 10× concentration, and following 2 fold serial dilutions, 20 μL aliquots were added per well to arrive at a final 1× concentration. Following a 48 hour incubation at 37° C. and 5% CO2 in a water-jacketed incubator, the inhibitory effect on cell proliferation was determined. Plates were analyzed using 20 μL of Presto Blue reagent (Life Technologies, cat #: A13262) per well. The reagent was mixed, and plates were incubated for 1 hour at 37° C. and 5% CO2 in a waterjacketed incubator. Plates were read using either a CytoFluor Series 4000 (PerSeptive BioSystems) or Synergy Neo microplate reader (BioTek) with emission λ: 590 nm and excitation λ: 560 nm. […]
# CHO-K1 cells were challenged with treprostinil alkyl esters, i.e., TR compounds of Formula (A), having the following R2 groups: […]
# C2, C3, C4, C5, C6, C8, C10 or C12 straight chain alkyl, at dosages ranging from 0.098 μM to 25 μM. Following a 48 hour incubation period, the inhibitory effect on cell proliferation was determined.
# Following a 72 hour incubation period, the inhibitory effect on cell proliferation was determined. Following a 48 hour incubation period, the inhibitory effect on cell proliferation was determined. […]
# NR8383 cells = test: NR8383 cell proliferation assay; assay type: cell-based, rat; conditions: Table 9, unformulated alkyl esters, (0.195 μM-25 μM), 72 hour incubation
# Experimental: Rat alveolar NR8383 cells were harvested when the monolayer was 50-90% confluent (use passage 5-11). Because the NR8383 cells include both adherent and non-adherent cells, media was transferred to a 50 mL Falcon tube. To obtain the cells remaining in the flask, 2 mL of plain media was added, and the remaining cells were scraped out of the 75 cm^2 flask with a cell scraper and added to the 50 mL tube. […] SH30071.03)+1×Pen-Strep (Life Technologies, cat #: 15410-122)). Cell number was determined using a hemacytometer. […] Measurements and calculations were made as described above for the CHO-K1 cells. Rat alveolar NR8383 cells were challenged with the same treprostinil derivative compositions: […]
compound,measurement,setting,value
CCCCCC[C@@H](C)OC(=O)COc1cccc2c1C[C@H]1C[C@@H](O)[C@H](CC[C@@H](O)CCCCC)[C@H]1C2 [(R)-2C8-TR],conversion rate compared with other compound,esterase,no significant difference
CCCCCC[C@H](C)OC(=O)COc1cccc2c1C[C@H]1C[C@@H](O)[C@H](CC[C@@H](O)CCCCC)[C@H]1C2 [(S)-2C8-TR],conversion rate compared with other compound,esterase,no significant difference
CCCCC[C@H](O)CC[C@@H]1[C@H]2Cc3cccc(OCC(=O)OC(CCC)CCC)c3C[C@H]2C[C@H]1O [Compound 4C7-TR],conversion rate compared with other compound,esterase,slower conversion rate than the linear compound C-TR
CCCCC[C@H](O)CC[C@@H]1[C@H]2Cc3cccc(OCC(=O)OC(CCC)CCCC)c3C[C@H]2C[C@H]1O (stereo partly shown) [Compound 4C8-TR],conversion rate compared with other compound,esterase,slower conversion rate than the linear compound C-TR; also recorded: slower conversion rate than the symmetrical compounds (4C7-TR and 5C9-TR)
"CCCCC[C@H](O)CC[C@@H]1[C@H]2Cc3cccc(OCC(=O)OC(CCCC)CCCC)c3C[C@H]2C[C@H]1O [Compound 5C9-TR, 5-nonanyl-treprostinil]",change of potency with incubation time,"EP2 prostanoid receptor; cAMP dose response curves, 0.5 hr to 8 hr",increases with incubation time
same,ranking of activity,EP2 prostanoid receptor; kinetic profile at 10 μM and 5 μM,C12-TR>C14-TR>5-nonanyl-TR>C16-TR
same,conversion rate compared with other compound,esterase,slower conversion rate than the linear compound C-TR
same,conversion rate compared with other compound,esterase; listed as 5-nonanyl-TR,slower conversion rate than linear C8-TR
same,solubility at 24 h,physchem; Solubility in HFA-134a with added ethanol,< 1000 µg/mL
same,solubility at 24 h,physchem; Solubility in HFA-227 with added ethanol,> 1000 µg/mL
"CCCCC[C@H](O)CC[C@@H]1[C@H]2Cc3cccc(OCC(=O)OCC)c3C[C@H]2C[C@H]1O [Compound C2-TR, treprostinil ethyl ester]",EC50,"EP2 prostanoid receptor; 4.5 hr incubation time, read-out: EC50 (μM) 4.5 hr",1.84 µM
same,EC50,"EP2 prostanoid receptor; 6.0 hr incubation time, read-out: EC50 (μM) 6.0 hr",1.68 µM
same,EC50,"EP2 prostanoid receptor; 8.0 hr incubation time, read-out: EC50 (μM) 8.0 hr",1.65 µM
same,EC50,"EP2 prostanoid receptor; EC50 (μM) 0.5 hr, 0.5 hr incubation time",2.43 µM
same,EC50,"EP2 prostanoid receptor; EC50 (μM) 1.0 hr, 1.0 hr incubation time",2.27 µM
same,EC50,"EP2 prostanoid receptor; EC50 (μM) 2.0 hr, 2.0 hr incubation time",1.75 µM
same,EC50,"EP2 prostanoid receptor; EC50 (μM) 3.0 hr, 3.0 hr incubation time",1.81 µM
same,EC50,"EP2 prostanoid receptor; EC50 (μM) 4.0 hr, 4.0 hr incubation time",1.88 µM
same,EC50,"EP2 prostanoid receptor; EC50 (μM) 5.0 hr, 5.0 hr incubation time",1.91 µM
same,EC50,"EP2 prostanoid receptor; EC50 (μM) 7.0 hr, 7.0 hr incubation time",1.71 µM
same,"Effect on cell proliferation, CHO-K1 Cells: detectable cell inhibition",CHO-K1 cells,No detectable cell inhibition
same,"Effect on cell proliferation, NR8383 Cells: detectable cell inhibition",NR8383 cells,No detectable cell inhibition
CCCCC[C@H](O)CC[C@@H]1[C@H]2Cc3cccc(OCC(=O)OCCC)c3C[C@H]2C[C@H]1O [Compound C3-TR],"Effect on cell proliferation, CHO-K1 Cells: detectable cell inhibition",CHO-K1 cells,No detectable cell inhibition
same,"Effect on cell proliferation, NR8383 Cells: detectable cell inhibition",NR8383 cells,No detectable cell inhibition
CCCCC[C@H](O)CC[C@@H]1[C@H]2Cc3cccc(OCC(=O)OCCCC)c3C[C@H]2C[C@H]1O [Compound C4-TR],"Effect on cell proliferation, CHO-K1 Cells: detectable cell inhibition",CHO-K1 cells,No detectable cell inhibition
same,"Effect on cell proliferation, NR8383 Cells: detectable cell inhibition",NR8383 cells,No detectable cell inhibition
CCCCCCOC(=O)COc1cccc2c1C[C@H]1C[C@@H](O)[C@H](CC[C@@H](O)CCCCC)[C@H]1C2 [Compound C6-TR],"Effect on cell proliferation, CHO-K1 Cells: detectable cell inhibition",CHO-K1 cells,No detectable cell inhibition
same,"Effect on cell proliferation, NR8383 Cells: detectable cell inhibition",NR8383 cells,No detectable cell inhibition
